Test systems include COLO 205 colon; DLD-1 colon; DMS 114 small cell lung; DMS 273 small cell lung; KM12 colon; LOX IMVI melanoma; M19-MEL melanoma; SN12C renal; SNB-75 CNS; DU-145 prostate; HS 578T breast; MDA-MB-231 breast.
Common to all, as to assay: growth of human tumour cells (NCI), 48 h

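The compound was tested at five concentrations on cells cultured in 96-well plates, with a 48-hour exposure period. TGI: concentration producing complete growth inhibition.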 Some results are limits rather than exact numbers.

For the molecule `CN=C(NC#N)NCc1ccccc1`, the TGI in the test with COLO 205 colon, with DLD-1 colon, with DMS 114 small cell lung, with DMS 273 small cell lung, in the test with KM12 colon and in the test with LOX IMVI melanoma was above 100 µM in each case. The TGI in the test on M19-MEL melanoma, with SN12C renal and in the test on SNB-75 CNS was above 100 µM each time.

As for `COC(=O)CC(c1ccccc1)C(C#N)(OP1(=O)OC(c2ccccc2)C(C)N1C)c1ccccc1` (stereo unspecified), the TGI in the test on COLO 205 colon was 44.6 µM; in the test with DU-145 prostate, above 100 µM; with HS 578T breast, above 100 µM; in the test with KM12 colon it was above 100 µM; in the test with LOX IMVI melanoma, above 100 µM; in the test with MDA-MB-231 breast, above 100 µM. Moreover, the TGI in the test with SN12C renal and in the test on SNB-75 CNS was above 100 µM each time.

As to `O=[N+]([O-])C(=C(\Cl)NCCO)/C(Cl)=C(/Cl)Br`, the TGI came out at 2.74 µM in the test with COLO 205 colon; 20.6 µM in the test on DU-145 prostate; 28 µM in the test with HS 578T breast; 17.6 µM in the test with KM12 colon; 2.19 µM in the test on LOX IMVI melanoma; 3.99 µM with MDA-MB-231 breast. Also, the TGI came out at 5.77 µM in the test with SN12C renal and 9.08 µM with SNB-75 CNS.

`CC1(C)CC(=O)C(/C=N/c2nc(-c3cccc([N+](=O)[O-])c3)cs2)=C(O)C1`: the TGI with COLO 205 colon is 30.9 µM; with DU-145 prostate, above 100 µM; in the test with HS 578T breast it was 62.4 µM; in the test on KM12 colon, above 100 µM; in the test on LOX IMVI melanoma, 27.2 µM; in the test with MDA-MB-231 breast, 43 µM. The TGI was determined as 37.6 µM with SN12C renal and 59.9 µM in the test with SNB-75 CNS.

Regarding `CSc1nnc2n1-c1ccccc1SCC2`, the TGI in the test with COLO 205 colon, in the test with DLD-1 colon, in the test with DMS 114 small cell lung, with DMS 273 small cell lung, with KM12 colon and in the test on LOX IMVI melanoma was above 100 µM each time. For the same molecule, the TGI with M19-MEL melanoma, with SN12C renal and in the test with SNB-75 CNS was above 100 µM throughout.

As to `COc1ccc2oc(=O)c(-c3nc4ccccc4s3)cc2c1`, the TGI is above 100 µM in the test on COLO 205 colon; above 67.5 µM with DU-145 prostate; above 95.8 µM in the test on HS 578T breast; above 100 µM with KM12 colon; 49.5 µM with LOX IMVI melanoma; 53.2 µM with MDA-MB-231 breast. Also, the TGI with SN12C renal was above 100 µM; in the test with SNB-75 CNS it was 27.5 µM.

Consider `Cc1cccc(C)c1NC(=O)/C(CC(=O)CC(c1ccccc1)c1c(O)c2ccccc2oc1=O)=N/O` (stereo unspecified), for which the TGI in the test on COLO 205 colon, in the test on DU-145 prostate, with HS 578T breast, in the test on KM12 colon, in the test with LOX IMVI melanoma and in the test with MDA-MB-231 breast was above 100 µM throughout. The TGI in the test on SN12C renal and in the test on SNB-75 CNS was above 100 µM in each case.

For `C[C@H](OC(=O)/C=C/c1ccc(O)c(O)c1)[C@H](C)OC(=O)/C=C/c1ccc(O)c(O)c1`, the TGI in the test on COLO 205 colon is 50.3 µM; in the test on DU-145 prostate, 39.3 µM; in the test on HS 578T breast, above 100 µM; in the test with KM12 colon it was above 100 µM; in the test with LOX IMVI melanoma, 22.6 µM; in the test with MDA-MB-231 breast, 35.9 µM. Further, the TGI in the test with SN12C renal is 34 µM; in the test with SNB-75 CNS, 39.3 µM.

Regarding `COC1=C2C[C@](OC)(C#CC=CC#CC2O)CC1(C)C` (stereo partly specified), the TGI in the test on COLO 205 colon, in the test on DU-145 prostate, in the test with HS 578T breast, with KM12 colon, in the test on LOX IMVI melanoma and in the test on MDA-MB-231 breast was above 100 µM each time. In addition, the TGI in the test on SN12C renal and in the test on SNB-75 CNS was above 100 µM in each case.

Take `Cc1c(OCc2cccc3ccccc23)ccc2c(=O)cc(S)oc12`: the TGI in the test with COLO 205 colon was above 100 µM; in the test with DU-145 prostate it was above 100 µM; in the test with HS 578T breast, above 100 µM; in the test with KM12 colon it was above 100 µM; with LOX IMVI melanoma, 47.5 µM; with MDA-MB-231 breast it was above 100 µM. The TGI in the test on SN12C renal and with SNB-75 CNS was above 100 µM in each case.

Regarding `CC1=NN(c2cccc(S(=O)(=O)O)c2)C2(C1)SCC(=O)N2c1nc2ccccc2s1` (stereo unspecified), the TGI in the test on COLO 205 colon, in the test on DU-145 prostate, in the test with HS 578T breast, in the test on KM12 colon, in the test with LOX IMVI melanoma and with MDA-MB-231 breast was above 100 µM throughout. Also, the TGI in the test on SN12C renal and in the test with SNB-75 CNS was above 100 µM in each case.

On to `O=C(CCCN1CCC(Nc2ccc(F)cc2)(c2nnnn2C2CCCCC2)CC1)c1ccc(F)cc1`, for which the TGI in the test on COLO 205 colon was 37.1 µM; with DU-145 prostate, 28.4 µM; in the test with HS 578T breast, 46.3 µM; in the test with KM12 colon it was 13.3 µM; with LOX IMVI melanoma, above 100 µM; in the test on MDA-MB-231 breast, 36 µM. Besides, the figures for the TGI with SN12C renal and in the test on SNB-75 CNS were above 100 µM and 24.7 µM, respectively.

Regarding `CCCCCC(=O)OC[n+]1ccc(-c2c(COC(=O)NC(C)C)c(COC(=O)NC(C)C)c3n2CCC3)cc1`, the TGI in the test on COLO 205 colon, with DU-145 prostate, with HS 578T breast, with KM12 colon, in the test on LOX IMVI melanoma and in the test with MDA-MB-231 breast was above 100 µM throughout. Moreover, the TGI in the test with SN12C renal and in the test on SNB-75 CNS was above 100 µM throughout.

Values taken from PubChem BioAssay (NCI).
